# From PubChem BioAssay AID248 (DTP/NCI, 2004)
# Where “and” joins values, the source holds several entries; their conditions need not be identical. Equal values may be shown once. Inconclusive results and toxic doses are left out.
# Test system: L1210 leukemia ip in BDF1 mice, survival T/C
# Test: NCI In Vivo Anticancer Drug Screen. Data for tumor model L1210 Leukemia (intraperitoneal) in B6D2F1 (BDF1) mice
# Conditions: endpoint: mean survival time, higher = longer survival
# Procedure, shortened: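 Transplantable tumor model; survival measured in treated vs vehicle control mice. Value = treated/control.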
# [1] = dose: 50.0 mg/kg/injection, schedule: Q01DX009 (ip), vehicle: Klucel (hydroxypropylcellulose) (HPC)
# [2] = dose: 100.0 mg/kg/injection, schedule: Q01DX009 (ip), vehicle: Klucel (hydroxypropylcellulose) (HPC)
# [3] = dose: 100.0 mg/kg/injection, schedule: Q04DX003 (ip), vehicle: Klucel (hydroxypropylcellulose) (HPC)
# [4] = dose: 200.0 mg/kg/injection, schedule: Q01DX009 (ip), vehicle: Klucel (hydroxypropylcellulose) (HPC)
# [5] = dose: 200.0 mg/kg/injection, schedule: Q04DX003 (ip), vehicle: Klucel (hydroxypropylcellulose) (HPC)
# [6] = dose: 100.0 mg/kg/injection, schedule: Q01DX009 (ip), vehicle: saline with Tween-80
# [7] = dose: 100.0 mg/kg/injection, schedule: Q04DX003 (ip), vehicle: saline with Tween-80
# [8] = dose: 200.0 mg/kg/injection, schedule: Q01DX009 (ip), vehicle: saline with Tween-80
# [9] = dose: 200.0 mg/kg/injection, schedule: Q04DX003 (ip), vehicle: saline with Tween-80
# [10] = dose: 400.0 mg/kg/injection, schedule: Q04DX003 (ip), vehicle: saline with Tween-80
# [11] = dose: 400.0 mg/kg/injection, schedule: Q01DX009 (ip), vehicle: Klucel (hydroxypropylcellulose) (HPC)
# [12] = dose: 50.0 mg/kg/injection, schedule: Q01DX009 (ip), vehicle: saline with Tween-80
# [13] = dose: 100.0 mg/kg/injection, schedule: Q04DX003 (ip), vehicle: saline
# [14] = dose: 400.0 mg/kg/injection, schedule: Q04DX003 (ip), vehicle: Klucel (hydroxypropylcellulose) (HPC)
smiles,measurement,setting,value
CC(C)(O)C(C)(O)c1cccc(Cl)c1 (configuration not stated),T/C,"dose: 12.5 mg/kg/injection, schedule: Q01DX009 (ip), vehicle: Klucel (hydroxypropylcellulose) (HPC)",100 % of control
same,T/C,"dose: 25.0 mg/kg/injection, schedule: Q01DX009 (ip), vehicle: Klucel (hydroxypropylcellulose) (HPC)",109 % of control
same,T/C,"dose: 25.0 mg/kg/injection, schedule: Q04DX003 (ip), vehicle: Klucel (hydroxypropylcellulose) (HPC)",91 % of control
same,T/C,[1],100 % of control
same,T/C,"dose: 50.0 mg/kg/injection, schedule: Q04DX003 (ip), vehicle: Klucel (hydroxypropylcellulose) (HPC)",93 % of control
same,T/C,[2],100 % of control
same,T/C,[3],96 % of control
same,T/C,[4],98 % of control
same,T/C,[5],90 % of control
CCCCOB(OCCCC)c1cccc(C(F)(F)F)c1,T/C,"dose: 100.0 mg/kg/injection, schedule: Q01DX009 (ip), vehicle: saline",100 % of control
same,T/C,"dose: 200.0 mg/kg/injection, schedule: Q01DX009 (ip), vehicle: saline",89 % of control
COc1cccc(/C=C/C(=O)c2ccc(Cl)cc2)c1OC,T/C,[6],101 % of control
same,T/C,[7],96 % of control
same,T/C,[8],88 % of control
same,T/C,[9],91 % of control
same,T/C,"dose: 400.0 mg/kg/injection, schedule: Q01DX009 (ip), vehicle: saline with Tween-80",87 % of control
same,T/C,[10],90 % of control
O=C1C[C@H]2CCCC[C@@H]2O1,T/C,"dose: 75.0 mg/kg/injection, schedule: Q01DX001 (ip), vehicle: other",107 % of control
same,T/C,"dose: 150.0 mg/kg/injection, schedule: Q01DX001 (ip), vehicle: other",105 % of control
same,T/C,"dose: 300.0 mg/kg/injection, schedule: Q01DX001 (ip), vehicle: other",102 % of control
CC1CN1P(=S)(N1CCCCC1)N1CC1C (configuration not stated),T/C,"dose: 50.0 mg/kg/injection, schedule: Q01DX001 (ip), vehicle: carboxymethylcellulose (CMC)",102 % of control
same,T/C,"dose: 100.0 mg/kg/injection, schedule: Q01DX001 (ip), vehicle: carboxymethylcellulose (CMC)",91 % of control
same,T/C,"dose: 200.0 mg/kg/injection, schedule: Q01DX001 (ip), vehicle: carboxymethylcellulose (CMC)",91 % of control
same,T/C,"dose: 400.0 mg/kg/injection, schedule: Q01DX001 (ip), vehicle: carboxymethylcellulose (CMC)",105 % of control
same,T/C,"dose: 600.0 mg/kg/injection, schedule: Q01DX001 (ip), vehicle: carboxymethylcellulose (CMC)",103 % of control
same,T/C,"dose: 800.0 mg/kg/injection, schedule: Q01DX001 (ip), vehicle: carboxymethylcellulose (CMC)",101 % of control
O=C(O)COc1cccc([N+](=O)[O-])c1,T/C,[2],96 % of control
same,T/C,[4],98 % of control
same,T/C,[11],94 % of control
O=C1OCCN1/N=C/c1ccc(Cl)cc1,T/C,"dose: 25.0 mg/kg/injection, schedule: Q01DX009 (ip), vehicle: saline with Tween-80",102 % of control
same,T/C,"dose: 37.5 mg/kg/injection, schedule: Q01DX009 (ip), vehicle: saline with Tween-80",98 % of control
same,T/C,[12],102 % of control
same,T/C,"dose: 75.0 mg/kg/injection, schedule: Q01DX009 (ip), vehicle: saline with Tween-80",93 % of control
same,T/C,"dose: 100.0 mg/kg/injection, schedule: Q04DX002 (ip), vehicle: saline with Tween-80",96 % of control
same,T/C,"dose: 200.0 mg/kg/injection, schedule: Q04DX002 (ip), vehicle: saline with Tween-80",107 % of control
C=CCCC/C(C)=N/NS(=O)(=O)c1ccc(C)cc1,T/C,[12],112 % of control
same,T/C,[6],92 % of control
same,T/C,[8],106 % of control
CCCCNCCCC,T/C,"dose: 25.0 mg/kg/injection, schedule: Q04DX003 (ip), vehicle: saline",102 % of control
same,T/C,"dose: 50.0 mg/kg/injection, schedule: Q04DX003 (ip), vehicle: saline",96 % of control
same,T/C,[13],94 % of control
O=[N+]([O-])c1cc(Br)c(Br)cc1Br,T/C,"dose: 100.0 mg/kg/injection, schedule: Q01DX001 (ip), vehicle: Klucel (hydroxypropylcellulose) (HPC)",106 % of control
same,T/C,[2],97 % of control
same,T/C,"dose: 200.0 mg/kg/injection, schedule: Q01DX001 (ip), vehicle: Klucel (hydroxypropylcellulose) (HPC)",101 % of control
same,T/C,[4],96 % of control
same,T/C,"dose: 400.0 mg/kg/injection, schedule: Q01DX001 (ip), vehicle: Klucel (hydroxypropylcellulose) (HPC)",101 % of control
O=c1cc(CNC23CC4CC(CC(C4)C2)C3)[nH]c(=O)[nH]1,T/C,[7],96 % of control
same,T/C,[9],96 % of control
same,T/C,[10],89 % of control
Cc1ccc(S(=O)(=O)NC(=O)N(CCCl)N=O)cc1,T/C,"dose: 10.0 mg/kg/injection, schedule: Q01DX001 (ip), vehicle: other",113 % of control
same,T/C,"dose: 40.0 mg/kg/injection, schedule: Q01DX001 (ip), vehicle: other",216 % of control
same,T/C,"dose: 62.0 mg/kg/injection, schedule: Q01DX001 (ip), vehicle: other",220 % of control
same,T/C,"dose: 93.0 mg/kg/injection, schedule: Q01DX001 (ip), vehicle: other",307 % of control
same,T/C,"dose: 187.0 mg/kg/injection, schedule: Q01DX001 (ip), vehicle: other",168 % of control
CC(=O)c1cccc(NC(=O)Oc2ccc3c(C)cc(=O)oc3c2)c1,T/C,[2],98 % of control
same,T/C,[4],101 % of control
same,T/C,[11],101 % of control
FC(F)(F)c1nc2nc(Br)c(Br)nc2[nH]1,T/C,[12],108 % of control
same,T/C,[6],89 % of control
same,T/C,[7],109 % of control and 110 % of control and 111 % of control
same,T/C,[8],98 % of control
same,T/C,[9],102 % of control and 115 % of control
CC1=CC23C(COC(=O)C24CO4)C(C(=O)O)=CC3C1C (configuration not stated),T/C,"dose: 10.0 mg/kg/injection, schedule: Q01DX001 (ip), vehicle: saline",96 % of control
Nc1nc(SCC(=O)c2ccc(Cl)cc2)c2c(n1)SCC(c1ccc(Cl)cc1)=N2,T/C,"dose: 100.0 mg/kg/injection, schedule: Q01DX001 (ip), vehicle: saline with Tween-80",97 % of control
same,T/C,"dose: 200.0 mg/kg/injection, schedule: Q01DX001 (ip), vehicle: saline with Tween-80",101 % of control
same,T/C,"dose: 400.0 mg/kg/injection, schedule: Q01DX001 (ip), vehicle: saline with Tween-80",92 % of control
Nc1ccc(Nc2ccncc2)cc1,T/C,[1],98 % of control
same,T/C,[2],97 % of control
same,T/C,[3],93 % of control
same,T/C,[4],98 % of control
same,T/C,[5],95 % of control
COc1cc(C(=O)Nc2cc(C(F)(F)F)ccc2Cl)cc(OC)c1OC,T/C,[2],106 % of control
same,T/C,[4],100 % of control
same,T/C,[11],97 % of control
COc1c([N+](=O)[O-])cc(C(=O)O)cc1[N+](=O)[O-],T/C,[2],104 % of control
same,T/C,[3],99 % of control
same,T/C,[4],98 % of control
same,T/C,[5],97 % of control
same,T/C,[11],98 % of control
same,T/C,[14],97 % of control
CCCCCCCCCCCCCCOc1ccc2ccccc2c1,T/C,[3],94 % of control
same,T/C,[5],96 % of control
same,T/C,[14],91 % of control
O=C(O)COc1cc(F)c([N+](=O)[O-])cc1[N+](=O)[O-],T/C,"dose: 100.0 mg/kg/injection, schedule: Q04DX002 (ip), vehicle: Klucel (hydroxypropylcellulose) (HPC)",90 % of control
same,T/C,"dose: 200.0 mg/kg/injection, schedule: Q04DX002 (ip), vehicle: Klucel (hydroxypropylcellulose) (HPC)",97 % of control
CNC(N)=S,T/C,[13],99 % of control
same,T/C,"dose: 200.0 mg/kg/injection, schedule: Q04DX003 (ip), vehicle: saline",94 % of control
same,T/C,"dose: 400.0 mg/kg/injection, schedule: Q04DX003 (ip), vehicle: saline",97 % of control
Cc1ccc(C)c(NC(=O)Nc2ccccc2F)c1,T/C,"dose: 100.0 mg/kg/injection, schedule: Q01DX009 (ip), vehicle: carboxymethylcellulose (CMC)",89 % of control
same,T/C,"dose: 200.0 mg/kg/injection, schedule: Q01DX009 (ip), vehicle: carboxymethylcellulose (CMC)",86 % of control
same,T/C,"dose: 400.0 mg/kg/injection, schedule: Q01DX009 (ip), vehicle: carboxymethylcellulose (CMC)",87 % of control
N#Cc1cn(C2OC(CO)C(O)C2O)c2nc(Cl)nc(N)c12 (configuration not stated),T/C,"dose: 7.5 mg/kg/injection, schedule: Q01DX005 (ip), vehicle: saline",114 % of control
same,T/C,"dose: 12.5 mg/kg/injection, schedule: Q01DX005 (ip), vehicle: saline",119 % of control
same,T/C,"dose: 12.5 mg/kg/injection, schedule: Q01DX009 (ip), vehicle: saline",117 % of control
same,T/C,"dose: 21.0 mg/kg/injection, schedule: Q01DX005 (ip), vehicle: saline",108 % of control
same,T/C,"dose: 25.0 mg/kg/injection, schedule: Q01DX005 (ip), vehicle: saline",118 % of control
same,T/C,"dose: 25.0 mg/kg/injection, schedule: Q01DX009 (ip), vehicle: saline",98 % of control
